In article PMC6637425 (ChemMedChem, 2019):
Read-outs that look alike come from different tables or passages of the source.

Tests used:
BACE1 enzyme = BACE1 enzyme (Homo sapiens, UniProt P56817); assay: BACE1 enzyme inhibition, Ki from kinetic data under tight-binding conditions; format: biochemical
BACE2 enzyme = biological target: T1, BACE2 enzyme (Homo sapiens, UniProt Q9Y5Z0); assay: BACE2 enzyme inhibition, Ki from kinetic data under tight-binding conditions; format: biochemical; conditions: for selectivity for BACE2 over BACE1: ratio of Ki values
T1 sequence (Q9Y5Z0 63-518): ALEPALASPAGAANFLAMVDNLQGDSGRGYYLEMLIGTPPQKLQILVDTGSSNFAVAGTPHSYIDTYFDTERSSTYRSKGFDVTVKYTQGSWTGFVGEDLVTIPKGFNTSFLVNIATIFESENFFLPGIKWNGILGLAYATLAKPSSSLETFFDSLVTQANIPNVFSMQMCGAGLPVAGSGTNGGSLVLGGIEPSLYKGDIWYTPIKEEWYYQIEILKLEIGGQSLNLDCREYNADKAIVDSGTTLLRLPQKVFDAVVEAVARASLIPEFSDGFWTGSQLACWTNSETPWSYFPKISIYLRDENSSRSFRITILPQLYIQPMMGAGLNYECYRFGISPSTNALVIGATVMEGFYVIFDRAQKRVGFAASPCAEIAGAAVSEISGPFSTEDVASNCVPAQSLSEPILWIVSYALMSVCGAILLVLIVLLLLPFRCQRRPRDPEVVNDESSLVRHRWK

[1] = read-out: Ki (nM) BACE1, Table 3
[2] = read-out: Ki (nM) BACE2, Table 3
[3] = Ki (nM) BACE1, Table 1, new inhibitors 2f-j
[4] = Ki (nM) BACE2, Table 1, new inhibitors 2f-j
[5] = read-out: Ki (nM) BACE1, Table 2
[6] = read-out: Ki (nM) BACE2, Table 2

Sequence of BACE1 enzyme (P56817 46-501): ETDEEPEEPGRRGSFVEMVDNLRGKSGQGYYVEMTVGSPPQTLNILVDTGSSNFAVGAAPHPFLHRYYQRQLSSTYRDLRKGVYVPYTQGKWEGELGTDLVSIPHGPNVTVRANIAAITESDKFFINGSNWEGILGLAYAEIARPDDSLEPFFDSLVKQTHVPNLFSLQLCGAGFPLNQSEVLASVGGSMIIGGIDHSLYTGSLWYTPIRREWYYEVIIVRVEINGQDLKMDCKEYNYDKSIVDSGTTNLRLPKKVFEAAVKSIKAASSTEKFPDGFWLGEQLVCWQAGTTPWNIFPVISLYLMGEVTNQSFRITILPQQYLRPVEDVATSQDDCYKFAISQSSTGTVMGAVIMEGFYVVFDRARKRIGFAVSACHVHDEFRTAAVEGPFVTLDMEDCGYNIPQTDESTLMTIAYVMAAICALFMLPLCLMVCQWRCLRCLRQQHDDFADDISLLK

COc1cccc(CNC[C@@H](O)[C@H](Cc2ccccc2)NC(=O)c2cc(C)cc(C(=O)N(C)C(C)c3nc(C)co3)c2)c1 (mixture of isomers) [inhibitor 3o, N^1-((2S,3R)-3-Hydroxy-4-((3-methoxybenzyl)ammo)-1-phenylbutan-2-yl)-N^3,5-dimethyl-N^3-(1-(4-methyloxazol-2-yl)ethyl)isophthalamide]
Ki (BACE1 enzyme; [1]): 767 nM | selectivity for BACE2 over BACE1 (BACE2 enzyme): no appreciable selectivity | Ki (BACE2 enzyme; [2]): 801 nM

COC[C@H]1CCCN1C(=O)c1cccc(C(=O)N[C@@H](Cc2ccccc2)[C@H](O)CN[C@H](C(=O)NCC(C)C)[C@H](C)O)c1 [inhibitor 2f, N-((2S,3R)-3-Hydroxy-4-(((2S,3S)-3-hydroxy-1-(isobutylamino)-1-oxobutan-2-yl)amino)-1-phenylbutan-2-yl)-3-((R)-2-(methoxymethyl)pyrrolidine-1-carbonyl)benzamide]
Ki (BACE1 enzyme; [3]): 3020 nM | Ki (BACE2 enzyme; [4]): 1370 nM

CCC[C@H](O)[C@H](NC[C@@H](O)[C@H](Cc1ccccc1)NC(=O)c1cc(C)cc(C(=O)N2CCC[C@@H]2COC)c1)C(=O)NCC(C)C [inhibitor 2g, N-((2S,3R)-3-Hydroxy-4-(((2S,3S)-3-hydroxy-1-(isobutylamino)-1-oxohexan-2-yl)amino)-1-phenylbutan-2-yl)-3-((R)-2-(methoxymethyl)pyrrolidine-1-carbonyl)-5-methylbenzamide]
Ki (BACE1 enzyme; [3]): 6.6 nM | Ki (BACE2 enzyme; [4]): 27.9 nM

Cc1cc(C(=O)N[C@@H](Cc2ccccc2)[C@H](O)CN[C@H](C(=O)NCC(C)C)[C@H](C)O)cc(C(=O)N(C)Cc2nc(C)cs2)c1 [inhibitor 2h, N^1-((2S,3R)-3-Hydroxy-4-(((2S,3S)-3-hydroxy-1-(isobutylamino)-1-oxobutan-2-yl)amino)-1-phenylbutan-2-yl)-N^3,5-dimethyl-N^3-((4-methylthiazol-2-yl)methyl)isophthalamide]
Ki (BACE1 enzyme; [3]): 176 nM | Ki (BACE2 enzyme; [4]): 96.9 nM | selectivity for BACE2 over BACE1 (BACE2 enzyme): 2 fold

CCC[C@H](O)[C@H](NC[C@@H](O)[C@H](Cc1ccccc1)NC(=O)c1cccc(C(=O)N(C)Cc2nc(C)cs2)c1)C(=O)NCC(C)C [inhibitor 2i, N^1-((2S,3R)-3-Hydroxy-4-(((2S,3S)-3-hydroxy-1-(isobutylamino)-1-oxohexan-2-yl)amino)-1-phenylbutan-2-yl)-N^3-methyl-N^3-((4-methylthiazol-2-yl)methyl)isophthalamide]
Ki (BACE1 enzyme; [3]): 33.1 nM | Ki (BACE2 enzyme; [4]): 51.1 nM

CCC[C@H](O)[C@H](NC[C@@H](O)[C@H](Cc1ccccc1)NC(=O)c1cc(C)cc(C(=O)N(C)Cc2nc(C)cs2)c1)C(=O)NCC(C)C [inhibitor 2j, N^1-((2S,3R)-3-Hydroxy-4-(((2S,3S)-3-hydroxy-1-(isobutylamino)-1-oxohexan-2-yl)amino)-1-phenylbutan-2-yl)-N^3,5-dimethyl-N^3-((4-methylthiazol-2-yl)methyl)isophthalamide]
Ki (BACE1 enzyme; [3]): 34.2 nM | Ki (BACE2 enzyme; [4]): 25.3 nM

COc1cccc([C@@H](NC[C@@H](O)[C@H](Cc2ccccc2)NC(=O)c2cc(C(=O)N[C@H](C)c3ccccc3)cc(N(C)S(C)(=O)=O)c2)[C@H](C)O)c1 [inhibitor 3a, N^1-((2S,3R)-3-Hydroxy-4-(((1R,2S)-2-hydroxy-1-(3-methoxyphenyl)propyl)ammo)-1-phenylbutan-2-yl)-5-(N-methylmethylsulfonamido)-N^3-((R)-1-phenylethyl)isophthalamide]
Ki (BACE1 enzyme; read-out: BACE1 Ki): 205 nM | Ki (BACE1 enzyme; [5]): 205 nM | Ki (BACE2 enzyme; read-out: BACE2 Ki): 731 nM | Ki (BACE2 enzyme; [6]): 731 nM

COc1cccc([C@@H](NC[C@@H](O)[C@H](Cc2ccccc2)NC(=O)c2cc(C(=O)N(C)[C@H](C)c3ccccc3)cc(N(C)S(C)(=O)=O)c2)[C@H](C)O)c1 [inhibitor 3b, N^1-((2S,3R)-3-Hydroxy-4-(((1R,2S)-2-hydroxy-1-(3-methoxyphenyl)propyl)ammo)-1-phenylbutan-2-yl)-N^3-methyl-5-(N-methylmethylsulfonamido)-N^3-((R)-1-phenylethyl)isophthalamide]
Ki (BACE1 enzyme; [5]): 4850 nM | Ki (BACE2 enzyme; [6]): 479 nM

COc1cccc([C@@H](NC[C@@H](O)[C@H](Cc2ccccc2)NC(=O)c2cccc(C(=O)N(C)[C@H](C)c3ccccc3)c2)[C@H](C)O)c1 [inhibitor 3c, N^1-((2S,3R)-3-Hydroxy-4-(((1R,2S)-2-hydroxy-1-(3-methoxyphenyl)propyl)ammo)-1-phenylbutan-2-yl)-N^3-methyl-N^3-((R)-1-phenylethyl)isophthalamide]
Ki (BACE1 enzyme; [5]): 51300 nM | selectivity for BACE2 over BACE1 (BACE2 enzyme): 54 fold | Ki (BACE2 enzyme; [6]): 950 nM

COc1cccc([C@@H](NC[C@@H](O)[C@H](Cc2ccccc2)NC(=O)c2cc(C)cc(C(=O)N(C)[C@H](C)c3ccccc3)c2)[C@H](C)O)c1 [inhibitor 3d, N^1-((2S,3R)-3-Hydroxy-4-(((1R,2S)-2-hydroxy-1-(3-methoxyphenyl)propyl)amino)-1-phenylbutan-2-yl)-N^3,5-dimethyl-N^3-((R)-1-phenylethyl)isophthalamide]
Ki (BACE1 enzyme; Ki (nM) BACE1, Table 2): 16200 nM | Ki (BACE2 enzyme; Ki (nM) BACE2, Table 2): 480 nM | selectivity for BACE2 over BACE1 (BACE2 enzyme): 34 fold

CCC[C@H](O)[C@H](NC[C@@H](O)[C@H](Cc1ccccc1)NC(=O)c1cccc(C(=O)N(C)[C@H](C)c2ccccc2)c1)c1cccc(OC)c1 [inhibitor 3e, N^1-((2S,3R)-3-Hydroxy-4-(((1R,2S)-2-hydroxy-1-(3-methoxyphenyl)pentyl)amino)-1-phenylbutan-2-yl)-N^3-methyl-N^3-((R)-1-phenylethyl)isophthalamide]
Ki (BACE1 enzyme; Ki (nM) BACE1, Table 2): 38600 nM | Ki (BACE2 enzyme; Ki (nM) BACE2, Table 2): 243 nM | selectivity for BACE2 over BACE1 (BACE2 enzyme): 159 fold

CCC[C@H](O)[C@H](NC[C@@H](O)[C@H](Cc1ccccc1)NC(=O)c1cc(C)cc(C(=O)N(C)[C@H](C)c2ccccc2)c1)c1cccc(OC)c1 [inhibitor 3f, N^1-((2S,3R)-3-Hydroxy-4-(((1R,2S)-2-hydroxy-1-(3-methoxyphenyl)pentyl)ammo)-1-phenylbutan-2-yl)-N^3,5-dimethyl-N^3-((R)-1-phenylethyl)isophthalamide]
Ki (BACE1 enzyme; [5]): 8800 nM | selectivity for BACE2 over BACE1 (BACE2 enzyme): 62 fold | Ki (BACE2 enzyme; [6]): 141 nM

CCC[C@H](O)[C@H](NC[C@@H](O)[C@H](Cc1ccccc1)NC(=O)c1cccc(C(=O)N(C)[C@H](C)c2ccccc2)c1)c1ccccc1 [inhibitor 3g, N^1-((2S,3R)-3-Hydroxy-4-(((1R,2S)-2-hydroxy-1-phenylpentyl)ammo)-1-phenylbutan-2-yl)-N^3-methyl-N^3-((R)-1-phenylethyl)isophthalamide]
Ki (BACE1 enzyme; [5]): 42500 nM | Ki (BACE2 enzyme; [6]): 2550 nM

CCC[C@H](O)[C@H](NC[C@@H](O)[C@H](Cc1ccccc1)NC(=O)c1cc(C)cc(C(=O)N(C)[C@H](C)c2ccccc2)c1)c1ccccc1 [inhibitor 3h, N^1-((2S,3R)-3-Hydroxy-4-(((1R,2S)-2-hydroxy-1-phenylpentyl)amino)-1-phenylbutan-2-yl)-N3,5-dimethyl-N^3-((R)-1-phenylethyl)isophthalamide]
Ki (BACE1 enzyme; Ki (nM) BACE1, Table 2): 18100 nM | Ki (BACE2 enzyme; Ki (nM) BACE2, Table 2): 905 nM

COc1cccc(CNC[C@@H](O)[C@H](Cc2ccccc2)NC(=O)c2cccc(C(=O)N(C)[C@H](C)c3ccccc3)c2)c1 [inhibitor 3i, N^1-((2S,3R)-3-Hydroxy-4-((3-methoxybenzyl)ammo)-1-phenylbutan-2-yl)-N^3-methyl-N^3-((R)-1-phenylethyl)isophthalamide]
Ki (BACE1 enzyme; [1]): 2080 nM | Ki (BACE2 enzyme; read-out: BACE2 Ki): 39.4 nM | Ki (BACE2 enzyme; [2]): 39.5 nM

COc1cccc(CNC[C@@H](O)[C@H](Cc2ccccc2)NC(=O)c2cc(C)cc(C(=O)N(C)[C@H](C)c3ccccc3)c2)c1 [inhibitor 3j, N^1-((2S,3R)-3-Hydroxy-4-((3-methoxybenzyl)ammo)-1-phenylbutan-2-yl)-N3,5-dimethyl-N^3-((R)-1-phenylethyl)isophthalamide]
Ki (BACE1 enzyme; [1]): 837 nM | selectivity for BACE2 over BACE1 (BACE2 enzyme): ~60 fold | Ki (BACE2 enzyme; [2]): 14 nM

C[C@H](c1ccccc1)N(C)C(=O)c1cccc(C(=O)N[C@@H](Cc2ccccc2)[C@H](O)CNCc2cccc(C(F)(F)F)c2)c1 [inhibitor 3k, N^1-((2S,3R)-3-Hydroxy-1-phenyl-4-((3-(trifluoromethyl)benzyl)amino)butan-2-yl)-N^3-methyl-N^3-((R)-1-phenylethyl)isophthalamide]
Ki (BACE1 enzyme; Ki (nM) BACE1, Table 3): 1350 nM | Ki (BACE2 enzyme; BACE2 Ki): 35.7 nM | Ki (BACE2 enzyme; Ki (nM) BACE2, Table 3): 35.7 nM | selectivity for BACE2 over BACE1 (BACE2 enzyme): 37 fold

Cc1cc(C(=O)N[C@@H](Cc2ccccc2)[C@H](O)CNCc2cccc(C(F)(F)F)c2)cc(C(=O)N(C)[C@H](C)c2ccccc2)c1 [inhibitor 3l, N^1-((2S,3R)-3-Hydroxy-1-phenyl-4-((3-(trifluoromethyl)benzyl)ammo)butan-2-yl)-N^3,5-dimethyl-N^3-((R)-1-phenylethyl)isophthalamide]
Ki (BACE1 enzyme; [1]): 815 nM | selectivity for BACE2 over BACE1 (BACE2 enzyme): over 500 fold | Ki (BACE2 enzyme; [2]): 1.6 nM

COc1cccc(CNC[C@@H](O)[C@H](Cc2ccccc2)NC(=O)c2cccc(C(=O)N(C)Cc3nc(C)co3)c2)c1 [inhibitor 3m, N^1-((2S,3R)-3-Hydroxy-4-((3-methoxybenzyl)amino)-1-phenylbutan-2-yl)-N^3-methyl-N^3-((4-methyloxazol-2-yl)methyl)isophthalamide]
Ki (BACE1 enzyme; Ki (nM) BACE1, Table 3): 68.8 nM | selectivity for BACE1 against BACE2 (BACE1 enzyme; ratio of Ki values): over 100 fold | Ki (BACE2 enzyme; Ki (nM) BACE2, Table 3): 7330 nM
